In ChEMBL document CHEMBL1145722, “Triterpene saponins from Cyclamen mirabile and their biological activities” (1997):
Values after ≈ are worked out from the molar mass of the structure shown.

How the values were obtained:
Format in all cases: functional
Staphylococcus aureus = assay: Antibacterial activity against Staphylococcus aureus ATCC 29213 by microtiter-tube dilution method
Enterococcus faecalis = assay: Antibacterial activity against Enterococcus faecalis ATCC 29212 by microtiter-tube dilution method
Escherichia coli = assay: Antibacterial activity against Escherichia coli ATCC 25922 by microtiter-tube dilution method
Pseudomonas aeruginosa = assay: Antibacterial activity against Pseudomonas aeruginosa ATCC 27853 by microtiter-tube dilution method
Candida albicans [1] = assay: Antifungal activity against Candida albicans by microtiter-tube dilution method
Pichia kudriavzevii = assay: Antifungal activity against Candida krusei by microtiter-tube dilution method
Candida parapsilosis = assay: Antifungal activity against Candida parapsilosis by microtiter-tube dilution method; settings: Lodderomyces parapsilosis
Kluyveromyces marxianus = assay: Antifungal activity against Candida pseudotropicalis by microtiter-tube dilution method
Candida albicans [2] = assay: Antifungal activity against Candida stellatoidea by microtiter-tube dilution method
Candida tropicalis = assay: Antifungal activity against Candida tropicalis by microtiter-tube dilution method
Cryptococcus neoformans = assay: Antifungal activity against Cryptococcus neoformans by microtiter-tube dilution method
[3] = Uterocontractile activity in rat uterus assessed as contraction at 7.4 uM relative to acetylcholine
[4] = Uterocontractile activity in rat uterus assessed as contraction at 8.6 uM relative to acetylcholine
[5] = Uterocontractile activity in rat uterus assessed as contraction at 6.5 uM relative to acetylcholine
[6] = Uterocontractile activity in rat uterus assessed as contraction at 7.5 uM relative to acetylcholine
[7] = Uterocontractile activity in rat uterus assessed as contraction at 20 uM relative to acetylcholine
[8] = Uterocontractile activity in rat uterus assessed as contraction at 6.4 uM relative to acetylcholine
[9] = Uterocontractile activity in rat uterus assessed as contraction at 19 uM relative to acetylcholine

| SMILES | MIC (Staphylococcus aureus) [µg/mL] | MIC (Enterococcus faecalis) [µg/mL] | MIC (Escherichia coli) [µg/mL] | MIC (Pseudomonas aeruginosa) [µg/mL] | MIC (Candida albicans [1]) [µg/mL] | MIC (Pichia kudriavzevii) [µg/mL] | MIC (Candida parapsilosis) [µg/mL] | MIC (Kluyveromyces marxianus) [µg/mL] | MIC (Candida albicans [2]) [µg/mL] | MIC (Candida tropicalis) [µg/mL] | MIC (Cryptococcus neoformans) [µg/mL] | Activity [3] [%] | Activity [4] [%] | Activity [5] [%] | Activity [6] [%] | Activity [7] [%] | Activity [8] [%] | Activity [9] [%] |
| --- | --- | --- | --- | --- | --- | --- | --- | --- | --- | --- | --- | --- | --- | --- | --- | --- | --- | --- |
| C[C@]1(C=O)CC[C@]23CO[C@@]4(CC[C@@H]5[C@@]6(C)CC[C@H](O[C@@H]7OC[C@H](O[C@@H]8O[C@H](CO)[C@@H](O)[C@H](O)[C@H]8O[C@@H]8OC[C@H](O)[C@H](O)[C@H]8O)[C@H](O)[C@H]7O[C@@H]7O[C@H](CO)[C@@H](O)[C@H](O)[C@H]7O)[C@@](C)(CO)[C@@H]6CC[C@@]5(C)[C@]4(C)C[C@H]2O)[C@@H]3C1 [CYCLACOUMIN] | > 400 | > 400 | > 400 | > 400 | 160 (≈ 149 µM) | > 320 | 80 (≈ 74.3 µM) | 160 (≈ 149 µM) | 160 (≈ 149 µM) | 160 (≈ 149 µM) | 80 (≈ 74.3 µM) | 58.2 |  |  |  |  |  |  |
| CC1(C)[C@@H](O[C@@H]2OC[C@H](O[C@@H]3O[C@H](CO)[C@@H](O)[C@H](O[C@@H]4O[C@H](CO)[C@@H](O)[C@H](O)[C@H]4O)[C@H]3O[C@@H]3OC[C@@H](O)[C@H](O)[C@H]3O)[C@H](O)[C@H]2O[C@@H]2O[C@H](CO)[C@@H](O)[C@H](O)[C@H]2O)CC[C@]2(C)[C@H]3CC[C@]45OC[C@@]6(CC[C@](C)(C=O)C[C@H]64)[C@H](O)C[C@@]5(C)[C@]3(C)CC[C@@H]12 [CYCLAMIN] | > 400 | > 400 | > 400 | > 400 |  |  |  |  |  |  |  |  |  | 48.4 |  |  |  |  |
| CC1(C)[C@@H](O[C@@H]2OC[C@H](O[C@@H]3O[C@H](CO[C@@H]4O[C@H](CO)[C@@H](O)[C@H](O)[C@H]4O)[C@@H](O)[C@H](O)[C@H]3O[C@@H]3OC[C@H](O)[C@H](O)[C@H]3O)[C@H](O)[C@H]2O[C@@H]2O[C@H](CO)[C@@H](O)[C@H](O)[C@H]2O)CC[C@]2(C)[C@H]3CC[C@]45OC[C@@]6(CC[C@](C)(C=O)C[C@H]64)[C@H](O)C[C@@]5(C)[C@]3(C)CC[C@@H]12 [ISOCYCLAMIN] | > 400 | > 400 | > 400 | > 400 |  |  |  |  |  |  |  |  |  | 0.1 |  | 28.3 |  |  |
| CC1(C)[C@@H](O[C@@H]2OC[C@H](O[C@@H]3O[C@H](CO[C@@H]4O[C@H](CO)[C@@H](O)[C@H](O)[C@H]4O)[C@@H](O)[C@H](O)[C@H]3O[C@@H]3OC[C@H](O)[C@H](O)[C@H]3O)[C@H](O)[C@H]2O[C@@H]2O[C@H](CO)[C@@H](O)[C@H](O)[C@H]2O)CC[C@]2(C)[C@H]3CC=C4[C@@H]5C[C@]6(C)CC[C@]5(COC6=O)[C@H](O)C[C@@]4(C)[C@]3(C)CC[C@@H]12 [MIRABILIN LACTONE] | > 400 | > 400 | > 400 | > 400 |  |  |  |  |  |  |  |  |  | 0.6 |  | 5.7 |  |  |

Continued, in another order:

| MIC (Staphylococcus aureus) [µg/mL] | MIC (Enterococcus faecalis) [µg/mL] | MIC (Escherichia coli) [µg/mL] | MIC (Pseudomonas aeruginosa) [µg/mL] | MIC (Candida albicans [1]) [µg/mL] | MIC (Pichia kudriavzevii) [µg/mL] | MIC (Candida parapsilosis) [µg/mL] | MIC (Kluyveromyces marxianus) [µg/mL] | MIC (Candida albicans [2]) [µg/mL] | MIC (Candida tropicalis) [µg/mL] | MIC (Cryptococcus neoformans) [µg/mL] | SMILES | Activity [3] [%] | Activity [4] [%] | Activity [5] [%] | Activity [6] [%] | Activity [7] [%] | Activity [8] [%] | Activity [9] [%] |
| --- | --- | --- | --- | --- | --- | --- | --- | --- | --- | --- | --- | --- | --- | --- | --- | --- | --- | --- |
| > 400 | > 400 | > 400 | > 400 | 160 (≈ 172 µM) | > 320 | 80 (≈ 86.1 µM) | 160 (≈ 172 µM) | 160 (≈ 172 µM) | 160 (≈ 172 µM) | 80 (≈ 86.1 µM) | CC1(C)[C@@H](O[C@@H]2OC[C@H](O[C@@H]3O[C@H](CO)[C@@H](O)[C@H](O)[C@H]3O)[C@H](O)[C@H]2O[C@@H]2O[C@H](CO)[C@@H](O)[C@H](O)[C@H]2O)CC[C@]2(C)[C@H]3CC[C@]45OC[C@@]6(CC[C@](C)(C=O)C[C@H]64)[C@H](O)C[C@@]5(C)[C@]3(C)CC[C@@H]12 [CYCLAMINORIN] |  | 46.2 |  |  |  |  |  |
| > 400 | > 400 | > 400 | > 400 | 160 (≈ 151 µM) | > 320 | 80 (≈ 75.4 µM) | 160 (≈ 151 µM) | 160 (≈ 151 µM) | 160 (≈ 151 µM) | 80 (≈ 75.4 µM) | CC1(C)[C@@H](O[C@@H]2OC[C@H](O[C@@H]3O[C@H](CO)[C@@H](O)[C@H](O)[C@H]3O[C@@H]3OC[C@H](O)[C@H](O)[C@H]3O)[C@H](O)[C@H]2O[C@@H]2O[C@H](CO)[C@@H](O)[C@H](O)[C@H]2O)CC[C@]2(C)[C@H]3CC[C@]45OC[C@@]6(CC[C@](C)(C=O)C[C@H]64)[C@H](O)C[C@@]5(C)[C@]3(C)CC[C@@H]12 [DEGLUCOCYCLAMIN] |  |  |  | 36.7 |  |  |  |
| > 400 | > 400 | > 400 | > 400 |  |  |  |  |  |  |  | CC1(C)[C@@H](O[C@@H]2OC[C@H](O[C@@H]3O[C@H](CO[C@@H]4O[C@H](CO)[C@@H](O)[C@H](O)[C@H]4O)[C@@H](O)[C@H](O)[C@H]3O[C@@H]3OC[C@H](O)[C@H](O)[C@H]3O)[C@H](O)[C@H]2O[C@@H]2O[C@H](CO)[C@@H](O)[C@H](O)[C@H]2O)CC[C@]2(C)[C@H]3CC=C4[C@@H]5C[C@@](C)(C(=O)O)CC[C@]5(CO)[C@H](O)C[C@@]4(C)[C@]3(C)CC[C@@H]12 [MIRABILIN] |  |  |  |  |  | 0.7 | 1.1 |
